Each block holds one molecule with its values, some of them ahead of it.
Tests used:
[1] = tested on: small cell lung cancer cell line H-526 expressing c-Kit kinase; assay: Effect on proliferation of H-526 cells stimulated by SCF (Cell Counting Kit-8); assay type: cell-based; settings: Homo sapiens, NCI-H526, 7th day after addition of test substance, read-out: IC50, concentration required for 50% inhibition of the cell proliferation stimulated by SCF
Method: H-526 cells were cultured in a 5% CO2 incubator (37° C.) using an RPMI1640 medium (Nissui Pharmaceutical Co., Ltd.) containing 10% FCS (purchased from Cell Culture Technologies). After culturing, H-526 cells were washed with PBS three times and were suspended in an RPMI1640 medium containing 0.1% BSA (Sigma Corporation) (hereinafter abbreviated as “BSA-RPMI1640”) at 1.0×10^5 cells/ml. […] On the 7th day after addition of the test substance, 20 μl of Cell Counting Kit-8 (Dojin Laboratories) was added to the well and was cultured in a 5% CO2 incubator (37° C.) for about 2 hours. After color development, the absorbance of each well was determined using a MTP-32 plate reader (Colona Electric Co., Ltd.) at a measuring wavelength of 450 nm and at a reference wavelength of 660 nm. The absorbance of each well was subtracted by the absorbance of the well without addition of SCF, and then the ratio of the absorbance of the well with addition of the test substance to the ratio of the absorbance of the well without addition of the test substance was determined. This ratio was used to calculate the concentration of the test substance required for 50% inhibition of the cell proliferation (IC50).

H-526 tumor = assay: Growth of H-526 tumor transplanted to nude mice; assay type: in vivo, Balb/c nu/nu mice; settings: oral, twice daily for 14 days, FIG. 2
Method: H-526 cells were cultured in a 5% CO2 incubator (37° C.) using an RPMI1640 medium containing 10% FCS. After the culture medium was collected, H-526 cells were washed with PBS twice and were suspended in PBS at 5.0×10^7 cells/ml. This cell suspension (0.1 ml) was transplanted to the subcutaneous parts of the right flank of 6-week female Balb/c nu/nu mice (purchased from Charles River Laboratories, Inc.). After transplantation, administration of a test substance was started at the point the tumor volume reached approximately 150 mm^3, and thus, oral administration was conducted twice daily for a period of 14 days. The test substance was suspended in a 0.5% methylcellulose solution (Wako Pure Chemical Industries Co., Ltd.) so as to give a dose of 0.1 ml/10 g body weight.
The tumor volume was measured with a caliper twice weekly during the administration period. The long and short diameters of the tumor were measured with a caliper and the tumor volume was calculated according to the equation: ½×long diameter×short diameter×short diameter. Here, the experiment was conducted in a vehicle control group of 10 animals (solvent-administered group) as well as in a test substance administered group of 5 animals.

c-Kit kinase [2] = biological target: T1, c-Kit kinase (Homo sapiens, UniProt P10721); assay: c-Kit kinase phosphorylation in H-526 tumor transplanted to nude mice (immunoblot); assay type: in vivo, Balb/c nu/nu mice; parameters: Compound 1 reduced phosphorylated c-Kit in tumor tissue when administered at 30 or 100 mg/kg; from tissue; host or cells: H-526 tumour grown subcutaneously in female Balb/c nu/nu mice; settings: H-526 tumor in nude mice, FIG. 3
Method: 0.1 ml of a H-526 cell suspension prepared at a concentration of 5.0×10^7 cells/ml, was transplanted to the subcutaneous parts of the right latus of 6-week female Balb/c nu/nu mice (purchased from Charles River Laboratories, Inc.). The animals were then divided into a vehicle control group (solvent-administered group) and a test substance administered group at the point the tumor volume reached 300-1000 mm^3: the test substance was administered to the latter group. […] After centrifugation, the supernatant was protein quantified, and a 3×SDS sample loading buffer was added to prepare a cell lysate sample. Subsequently, the cell lysate was heat-treated at 94° C. for 10 minutes and cryopreserved at -20° C. […] After electrophoresis, the sample was transferred to a PVDF membrane (Amersham Pharmacia Biotech Inc.) for 3 hours. In order to assay phosphorylated c-Kit, c-Kit and β-actin, immunoblot was performed using a phospho-c-kit ([…]) antibody (Cell Signaling Technologies, Inc.), an anti c-Kit antibody (Cell Signaling Technologies, Inc.) and an anti β-actin antibody (Sigma) as a primary antibody and an anti-rabbit IgG, HRP-linked antibody (Cell Signaling Technologies, Inc.) as a secondary antibody. After the membrane was washed, it was developed with a Super Signal (Pierce Biotechnology, Inc.).

c-Kit kinase [3] = biological target: T1, c-Kit kinase; assay: c-Kit kinase phosphorylation by SCF stimulation in H-526 cells (immunoblot, phospho-c-kit Tyr719); assay type: cell-based; parameters: in the small cell lung cancer cell line H-526 expressing c-Kit kinase; host or cells: H-526 small cell lung cancer cells; settings: 1 hour test substance then 5 minutes SCF, FIG. 1
Method: H-526 cells were cultured in a 5% CO2 incubator (37° C.) using an RPMI1640 medium containing 10% FCS. After culturing, H-526 cells were washed with PBS three times and were suspended in a BSA-RPMI1640 medium at 5.0×10^5 cells/ml. Each 1 ml of this cell suspension was inoculated to the well of a 24-well plate and the suspension was cultured in a 5% CO2 incubator (37° C.) for 6 hours. After 6-hours culturing, 1 ml of BSA-RPMI1640 containing a diluted test substance was added to each well and culturing was carried out in a 5% CO2 incubator (37° C.) for 1 hour. […] After 5-minutes culturing, the cells were washed with PBS and 100 μl of SDS sample loading buffer was added to the cells to prepare a cell lysate sample. After the sample was heat-treated at 94° C. for 10 minutes, it was cryopreserved at -20° C. […] After electrophoresis, the sample was transferred to a PVDF membrane (Amersham Pharmacia Biotech Inc.) for 3 hours. The transferred membrane was subjected to immunoblot using a phospho-c-kit ([…]) antibody (Cell Signaling Technology Inc.) as a primary antibody and an anti-rabbit IgG, HRP-linked antibody (Cell Signaling Technology Inc.) as a secondary antibody. After the membrane was washed, it was developed with a Super Signal (Pierce Biotechnology, Inc.).

T1 sequence (P10721 26-976): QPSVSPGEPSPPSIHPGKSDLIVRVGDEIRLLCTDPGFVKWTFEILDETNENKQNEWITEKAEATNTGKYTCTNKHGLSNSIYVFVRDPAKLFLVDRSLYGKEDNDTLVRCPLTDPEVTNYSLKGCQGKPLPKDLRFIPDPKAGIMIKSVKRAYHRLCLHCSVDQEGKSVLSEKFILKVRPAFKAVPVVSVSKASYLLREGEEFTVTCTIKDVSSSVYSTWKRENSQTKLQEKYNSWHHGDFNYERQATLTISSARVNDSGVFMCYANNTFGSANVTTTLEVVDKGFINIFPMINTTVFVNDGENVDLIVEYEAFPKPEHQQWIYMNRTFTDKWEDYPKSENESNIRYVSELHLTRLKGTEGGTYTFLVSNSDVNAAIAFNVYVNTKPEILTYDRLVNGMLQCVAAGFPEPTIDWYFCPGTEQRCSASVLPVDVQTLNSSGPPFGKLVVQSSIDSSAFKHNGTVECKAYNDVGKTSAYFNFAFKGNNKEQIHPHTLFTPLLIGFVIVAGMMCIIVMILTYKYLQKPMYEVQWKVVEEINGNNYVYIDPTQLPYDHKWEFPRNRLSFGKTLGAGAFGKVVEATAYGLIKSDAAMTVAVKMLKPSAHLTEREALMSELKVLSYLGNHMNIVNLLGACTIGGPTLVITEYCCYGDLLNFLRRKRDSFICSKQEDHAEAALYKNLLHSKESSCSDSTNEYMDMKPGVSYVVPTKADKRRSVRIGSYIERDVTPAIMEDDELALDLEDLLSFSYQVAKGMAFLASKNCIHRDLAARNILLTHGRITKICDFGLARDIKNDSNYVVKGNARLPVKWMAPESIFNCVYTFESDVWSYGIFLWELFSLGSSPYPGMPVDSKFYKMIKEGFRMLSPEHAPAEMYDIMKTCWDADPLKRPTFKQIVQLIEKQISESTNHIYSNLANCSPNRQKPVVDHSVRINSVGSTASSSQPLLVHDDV

SMILES: CCNC(=O)Nc1ccc(Oc2ccnc3cc(OC)c(C(=O)NOC)cc23)cc1Cl [Compound 4, N6-Methoxy-4-(3-chloro-4-(((ethylamino)carbonyl)amino)phenoxy)-7-methoxy-6-quinolinecarboxamide]
IC50 [1]: 0.0563 µM

SMILES: Cc1ccc(NC(=O)c2ccc(CN3CCN(C)CC3)cc2)cc1Nc1nccc(-c2cccnc2)n1 [STI571, reference compound]
anti-tumor effect on nude mouse transplanted H-526 tumor (H-526 tumor; 160 mg/kg): little anti-tumor effect | phosphorylated c-Kit in tumor tissue (c-Kit kinase [2]; 160 mg/kg): partially inhibited phosphorylation

SMILES: CONC(=O)c1cc2c(Oc3ccc(NC(=O)NC4CC4)c(Cl)c3)ccnc2cc1OC [Compound 3, N6-Methoxy-4-(3-chloro-4-(((cyclopropylamino)carbonyl)amino)phenoxy)-7-methoxy-6-quinolinecarboxamide]
IC50 [1]: 0.214 µM

Continued by falling IC50 [1], values first:

IC50 [1]: 0.0128 µM
SMILES: CCNC(=O)Nc1ccc(Oc2ccnc3cc(OC)c(C(N)=O)cc23)cc1Cl [Compound 2, 4-(3-Chloro-4-(ethylaminocarbonyl)aminophenoxy)-7-methoxy-6-quinolinecarboxamide]

IC50 [1]: 0.00936 µM | c-Kit and β-actin in tumor tissue (c-Kit kinase [2]; 30 or 100 mg/kg): remained unchanged | phosphorylated c-Kit in tumor tissue (c-Kit kinase [2]; 30 or 100 mg/kg): completely inhibited phosphorylation
SMILES: COc1cc2nccc(Oc3ccc(NC(=O)NC4CC4)c(Cl)c3)c2cc1C(N)=O [Compound 1, 4-(3-Chloro-4-(cyclopropylaminocarbonyl)aminophenoxy)-7-methoxy-6-quinolinecarboxamide]
growth of nude mouse transplanted H-526 tumor (tumor volume) (H-526 tumor): suppressed the growth of the nude mouse transplanted H-526 tumor in a dose-dependent manner | suppression of c-Kit kinase phosphorylation in the presence of SCF (c-Kit kinase [3]): suppressed the c-Kit kinase phosphorylation that would take place in the presence of SCF in a concentration-dependent manner
